{"source": "patent US20150125863A1", "about": "“CXCL5 AS A MARKER OF HORMONE ESCAPE IN PROSTATE CANCER” (Institut National de la Sante Recherche Medicale (INSERM), priority 2010, published 2015)", "key": {"[1]": {"test_system": "CXCL5 RNA levels in CWR-R1 cells", "test": "CXCL5 RNA levels by real-time PCR in CWR-R1 cells", "type": "cell-based", "details": "CDFCS + 10^-8 M Dihydrotestosterone vs CDFCS (FIG. 5A)", "excerpt": "(§1) Results represent the mean±SD of 3 independent experiments.\nas §1"}, "[2]": {"test_system": "CXCL5 RNA levels in LNCaP cells", "details": "CDFCS + 10^-8 M Dihydrotestosterone vs CDFCS (FIG. 5B)", "protocol": "CXCL5 RNA levels were measured by real-time PCR. CXCL5 levels in the presence of FCS were set to 1. Results represent the mean±SD of 3 independent experiments.\nCWR-R1 and LNCaP cells were maintained in RPMI 1640 with Glutamax (Invitrogen, Carlsbad, USA), completed with 10% Foetal Calf Serum (FCS) and gentamycin. For androgen stimulations, cells were weaned off steroids before any experiment by culturing them in phenol red-free RPMI 1640 supplemented with 10% CDFCS (charcoal dextran-treated FCS) for 4 days.\nTotal RNA was prepared using TriReagent (Euromedex, Souffelweyersheim, France). The amount of RNA was estimated by spectrophotometry at 260 nm. Complementary DNAs (cDNA) were obtained from reverse transcription (RT) of 3 μg of total RNA in 13 μl of water RNase free. 1 μl of random hexanucleotides as primers (pd(N)6, 50 mM) in the presence of 1 μl of dNTPs (250 mM; Gibco BRL) were added to the RNA and incubated 5 minutes at 70° C. After, 5 μl of mix containing reverse transcriptase (1 μl) and reverse transcriptase buffer 5× (4 μl) were added to the RNA solution and incubated 1 h at 42° C. Real-time PCR quantification was then performed using a SYBR Green approach (Light Cycler; Roche) as previously described (Lucas et al. 2003 Biochem Biophys Res Commun 309:1011-1016). For each sample, CXCL5 mRNA levels were normalized with RS9 mRNA levels (reference gene)."}, "CWR-R1 cells": {"test_system": "CWR-R1 cells", "test": "In vitro proliferation of CWR-R1 cells", "type": "cell-based", "details": "CXCL5 1 or 50 ng/ml with 10^-5 M bicalutamide, 5 days (FIG. 6B)", "experimental": "CWR-R1 cells were cultured in whole fetal calf serum (FCS), in the absence or in the presence of […] of bicalutamide. CXCL5 RNA levels were measured by real-time PCR. […] Results represent the mean±SD of 3 independent experiments. B. CXCL5 enhances the proliferation of CWR-R1 cells both in the absence and in the presence of the anti-androgen bicalutamide. CWR-R1 cells were cultured in FCS. Some cells were treated with 10^-5 M bicalutamide. The cells were either treated with Ethanol vehicle (C) or with CXCL5 (1 or 50 ng/ml). Proliferation was quantified 5 days after treatment by counting the cells.\n2.5×10^4 cells per well were seeded in triplicate in 24-well culture plates in complete growth media previously described. Cell numbers were determined every two days for 6 days by counting with a malassez slide or by measuring of luciferase activity. For proliferation in complete fetal calf serum, cells were maintained in […] with RPMI 1640. To test the effects of androgens, cells were maintained in phenol-red free RPMI 1640 medium supplemented with 10% FCS."}, "[3]": {"test_system": "CXCL5 expression in PC-3 cells", "test": "Blocking experiments with shCXCL5, CXCL5 levels by Elisa in PC-3 cells", "type": "cell-based", "details": "PC-3 cells transfected with shCXCL5 vector, compared to Non-Target shRNA Control Vector, after 4 days, Elisa (FIG. 9B)", "experimental": "(§2) A. PC-3 cells were grown for 4 days and either non treated (Control) or treated with goat serum (diluted 1/20) as isotype control antibody (Isotype) or with 0.5 μg/ml of CXCL5 antibody (CXCL5 Ab). Medium with or without treatment was changed at day 2. Results represent the mean of luciferase activity±SD after 4 days of 3 independent experiments. B, C. PC-3 cells were transfected with Non-Target shRNA Control (shCt) or shCXCL5 vector. 4 days later, the medium was collected and CXCL5 levels were measured by Elisa (B). The number of cells was counted on day 4 (C). A representative experiment is shown here.\n(§3) 10^5 PC-3 cells plated in 6 well plated in 10% FCS with RPMI 1640 were transfected with 4 μg of Non-Target shRNA Control Vector (ShC002, Mission Library, Sigma-Aldrich) or shCXCL5 vector (SHCLND-NM_002994-TRCN0000057934NM_002994.3-304s1c1TRC1, Sequence SEQ ID NO: 6: […] Mission Library, Sigma-Aldrich) using Jet-PEI® protocol in each well. 8 h after transfection medium was changed. CXCL5 secretion was quantified 48 h later in conditioned medium by ELISA (Duoset, DY254, R&D system). Cells were counted 4 days after transfection using malassez slide."}, "PC-3 cells": {"test_system": "PC-3 cells", "test": "Blocking experiments with shCXCL5, PC-3 cell proliferation", "type": "cell-based", "details": "PC-3 cells transfected with shCXCL5 vector, cells counted on day 4 (FIG. 9C)", "experimental": "as §2, §3"}}}
{"compound": "C[C@]12CCC(=O)C[C@@H]1CC[C@@H]1[C@@H]2CC[C@]2(C)[C@@H](O)CC[C@@H]12", "note": "[dihydrotestosterone]", "values": [{"measurement": "effect on levels of CXCL5 RNA", "setting": "[1]", "result": "partially reduced"}, {"measurement": "effect on levels of CXCL5 RNA", "setting": "[2]", "result": "partially reduced"}]}
{"compound": "recombinant CXCL5: recombinant C-X-C motif chemokine 5 added to CWR-R1 cells", "values": [{"measurement": "effect on the inhibition of proliferation by bicalutamide", "setting": "CWR-R1 cells", "result": "partially alleviate"}]}
{"compound": "shCXCL5: shRNA vector against CXCL5, SEQ ID NO: 6, Mission Library, Sigma-Aldrich (DNA CCGGGATCAGTAATCTGCAAGTGTTCTCGAGAACACTTGCAGATTACTGATCTTTTTG)", "values": [{"measurement": "CXCL5 expression", "setting": "[3]", "result": "strongly reduced"}, {"measurement": "inhibition of proliferation of PC-3 cells", "setting": "PC-3 cells", "result": "more than 10 fold"}]}
